# Data taken from patent US8080579B2, “Compositions and methods for treatment of inflammatory bowel disease” (The Regents of The University of Michigan, priority 2005, dated 2011).
# What was measured:
# [1] = test system: angiotensin converting enzyme (ACE); test: IEL ACE mRNA by real time PCR, short bowel syndrome model; format: in vivo, mice; details: enalaprilat 0.6 mg/kg/day i.p., 7 days
# Protocol: (§1) Short Bowel Syndrome Model: A 70% mid-small bowel resection was performed (i.e. bowel between 3.5 cm distal to the ligament of Treitz and 3.5 cm proximal to the ileocecal valve), followed by an end-to-end jejuno-ileal anastomosis with 7-0 monofilament, absorbable suture. Postoperatively a subcutaneous bolus of 3 ml 0.9% saline solution was given to maintain hydration status.
# (§2) Sham operation: Mid-small bowel was transsected and re-anastomosed without bowel-resection.
# IEL purification: Isolation of purified IEL from EC was performed by direct magnetic separation. Magnetic beads conjugated with antibody to CD45 (pan-lymphoid marker) were used to segregate IEL from EC (BioMag SelectaPure Anti-Mouse CD 45R Antibody Particles, Polyscience Inc., Warrington, Pa.). Magnetic separation was performed twice to further deplete EC. […]
# Real time PCR: Real-time PCR was run to better quantify actual changes in ACE expression. cDNA was also used for real time PCR. The same primers for ACE and β-actin were used as for conventional PCR, SYBR Green I was utilized for fluorescence. […] Ct-values of ACE and β-actin were converted to numbers of cDNA copies, and results expressed as the ratio of ACE over β-actin expression.
# (§3) To further understand the relevance of ACE expression on EC apoptosis, ACE-inhibition was used. […] After 1 week, mice were killed, EC apoptotic rates assessed, and IEL mRNA and protein isolated.
# [2] = test system: angiotensin converting enzyme (ACE); test: IEL ACE protein by immunoblot, short bowel syndrome model; format: in vivo, mice; details: enalaprilat 0.6 mg/kg/day i.p., 7 days
# Protocol: as §1, §2
# (§4) IEL purification: Isolation of purified IEL from EC was performed by direct magnetic separation. Magnetic beads conjugated with antibody to CD45 (pan-lymphoid marker) were used to segregate IEL from EC (BioMag SelectaPure Anti-Mouse CD 45R Antibody Particles, Polyscience Inc., Warrington, Pa.). […]
# Immunoblot analysis: Protein was extracted from isolated IEL and immunoblots performed by using a Bio-Rad protein assay kit (Bio-Rad Laboratories, Hercules, Calif.), with standard methods. […] Expression for β-actin was determined in the same fashion by re-probing membranes with purified anti-mouse β-actin (1:12000, Sigma-Aldrich, St. Louis, Mo.). Results are expressed as the ratio of ACE over β-actin protein expression.
# as §3
# TNF-α = test: IEL TNF-α mRNA by RT-PCR, short bowel syndrome model; format: in vivo; details: Sham operated mice, enalaprilat 0.6 mg/kg/day i.p., 7 days
# Protocol: as §1, §2, §4
# Reverse transcriptase polymerase chain reaction (RT-PCR): mRNA (poly-A positive) was reversed transcribed into cDNA following a standard protocol. […] Gel bands were analyzed by DNA sequencing to ensure the correct product. Kodak EDAS System (Rochester, N.Y.) was used for imaging and quantification. Results were expressed as the ratio of the investigated mRNA over the β-actin mRNA expression.
# as §3
# [3] = test system: intestinal epithelial cells; test: Epithelial cell proliferation (BrdU), short bowel syndrome model; format: in vivo, mice; details: FIG. 11
# Protocol: Epithelial cell proliferation: Mice were given a dose of bromodeoxyuridine (BrdU) 1 to 2 hours prior to sacrifice. Tissues harvested from the intestine were subsequently stained for BrdU as a marker of cellular proliferation.
smiles,measurement,setting,value
"C[C@H](N[C@@H](CCc1ccccc1)C(=O)O)C(=O)N1CCC[C@H]1C(=O)O [ACE-I, enalaprilat]",IEL ACE mRNA (ratio of ACE-cDNA copies over β-actin-cDNA copies),[1]; SBS mice,0.63 ± 0.25
same,IEL ACE mRNA (ratio of ACE-cDNA copies over β-actin-cDNA copies),[1]; Sham operated mice,0.66 ± 0.22
same,IEL ACE protein (ratio of ACE over β-actin protein expression),[2]; SBS mice,0.14 ± 0.03
same,IEL ACE protein (ratio of ACE over β-actin protein expression),[2]; Sham operated mice,0.13 ± 0.01
same,IEL TNF-α mRNA (ratio over β-actin mRNA),TNF-α,0.37 ± 0.07
same,Epithelial cell proliferation,[3],increase significantly
